Assay: Equilibrium solubility of (I) in 1-hexanol at different temperatures
Assay type: physicochemical
Conditions: equilibrium solubility in 1-hexanol
Procedure: The equilibrium solubility of (I) in 1-hexanol at different temperatures was determined using a double jacketed 750 mL crystallizer. A mixture of (I) and 1-hexanol in the crystallizer was heated to a target temperature and the equilibrium condition was allowed to establish at that temperature. Samples from the solid free mother liquor were drawn using a filter frit. The samples were analysed for (I) content.
The results are shown in […].1 and are plotted in FIG. 1.

Question: With `CCCCCCOC(=O)c1ccccc1C(=O)c1ccc(N(CC)CC)cc1O` [(I), 2-(4′-Diethylamino-2′-hydroxybenzoyl)benzoic acid hexyl ester] as the compound, how does the “(I) concentration” value (0 °C) read?
Answer: 3.8%

Question: And the “(I) concentration” value (4 °C)?
Answer: 4.3%

Question: And the “(I) concentration” value (7 °C)?
Answer: 5.4%

Question: And the “(I) concentration” value (8 °C)?
Answer: 5.3%

Question: And the “(I) concentration” value (12 °C)?
Answer: 6.2%

Question: And the “(I) concentration” value (13.7 °C)?
Answer: 8.6%

Question: What about the “(I) concentration” value (16 °C) of the same compound?
Answer: 7.6%

Question: And the “(I) concentration” value (20 °C)?
Answer: 8.8%

Question: And the “(I) concentration” value (25 °C)?
Answer: 12.3%

Question: What about the “(I) concentration” value (28.3 °C) of the same compound?
Answer: 17.6%

Question: And the “(I) concentration” value (30 °C)?
Answer: 19.0%

Question: What about the “(I) concentration” value (35 °C) of the same compound?
Answer: 40.0%

Question: And the “(I) concentration” value (−0.9 °C)?
Answer: 3.4%

Source: US20240025841A1, “METHOD FOR OBTAINING CRYSTALLINE DIETHYLAMINO HYDROXYBENZOYL HEXYL BENZOATE” (BASF SE, priority 2020, published 2024)
